Biological target: human α-thrombin (Homo sapiens, UniProt P00734)
Assay: Sub-library screen for active and permeable cyclic peptides (PAMPA plus thrombin inhibition)
Assay type: biochemical
Conditions: crude, slopes normalized to DMSO; for Residual thrombin activity: Top sample: PAMPA acceptor well after 14 h, 5 μM donor; for Residual thrombin activity: Equilibrated sample: donor sample diluted to theoretical equilibrium (1 μM in assay)
Method: Linear dithiol peptides were synthesized in fritted 5-ml polypropylene syringes on a MultiPep RSi parallel peptide synthesizer (Intavis) by standard Fmoc-based solid-phase peptide synthesis on cysteamine 2-chlorotrityl resin (Sigma-Aldrich, 8.56000, 1.63 mmol g^−1 loading, 25 μmol scale) as described above with small changes. Amino acids (65 μmol, 2.6 eq.) were activated with HATU (63 μmol, 2.5 eq.) and NMM (145 μmol, 5.8 eq.) in 280 μl of DMF and 5 μl of NMP and let to react with the resin (25 μmol, 1 eq.) for 45 min. Couplings were performed twice for each amino acid. Resin was washed once with 800 μl of DMF, and unreacted amines were capped with 5% acetic anhydride and 6% 2,6-lutidine in 400 μl of DMF for 5 min. The resin was washed six times with 600 μl of DMF, and Fmoc protecting groups were removed by incubating the resin twice with 450 μl of a 20% piperidine solution in DMF for 5 min. The resin was washed six times with 600 μl of DMF before proceeding to the next coupling cycle. After completing the last coupling cycle, the resin was washed six times with […] of DCM. Peptide cleavage and ether precipitation were carried out as described above. After quantification with Ellman’s reagent, 1 μmol of each peptide was transferred in seven replicates to new Nunc 96-well DeepWell polypropylene plates and lyophilized. Peptides were cyclized as described above to afford 20 mM cyclic peptide stock solutions in DMSO containing 160 mM HEPES sodium salt. The amine on cyclic peptides was acylated with 5-chlorothiophene-2-carboxylic acid as follows. A 160 mM solution in 5-chlorothiophene-2-carboxylic acid was prepared in DMSO containing 160 mM HEPES sodium salt, and the acid was activated by mixing in equal volumes with a 160 mM HSTU solution in DMSO. Then, 10 μl of the activated carboxylic acid solutions and the cyclic peptide stocks were placed in Echo Qualified 384-well Low Dead Volume microplates (Labcyte), and 400 nl of cyclic peptide and 400 nl of HSTU-activated 5-chlorothiophene-2-carboxylic acid were transferred combinatorially to 384-well microplates (Greiner, 781076) using the Echo 650 acoustic liquid handler (Labcyte). Plates were centrifuged at 2,000 g for 2 min, and the reaction was allowed to proceed at room temperature for 8 h before addition of 39.2 μl of DMSO with a CERTUS FLEX liquid dispenser (Gyger). A volume of 25 μl of the resulting DMSO solutions was diluted with PBS buffer at pH 7.4 containing 5% DMSO in Nunc 96-well DeepWell polypropylene plates to afford 5 μM solutions of the acylated peptides.
The PAMPA plates were covered with a lid to avoid evaporation and incubated for 14 h at room temperature. Additionally, a diluted donor sample was prepared at the concentration representing theoretical maximum permeability (3 μM). Thereby, 30 μl of the donor sample before incubation was diluted with 20 μl of PBS buffer at pH 7.4 containing 5% DMSO. Volumes of 16 μl of each acceptor well and the diluted donor samples were transferred to a 384-well microplate (Greiner, 781076), and thrombin activity was measured as follows. Human α-thrombin (16 μl, 6 nM, Molecular Innovations) in assay buffer was dispensed into each well using a CERTUS FLEX liquid dispenser (Gyger), and plates were incubated at room temperature for 10 min. Then, 16 μl of a 150 μM fluorogenic thrombin substrate solution (Z-Gly-Gly-Arg-AMC, Bachem) in assay buffer containing 1% DMSO was added to each well, and thrombin inhibition was determined by measuring the fluorescent gain over time. Fluorescence intensity was measured on a Tecan Infinite M200 Pro microplate reader for 30 min at 25 °C with a fluorescent readout every 3 min (excitation: 360 nm, emission: 465 nm). Protease inhibition was calculated by comparing the enzymatic activity to a control without cyclic peptide.

Residual thrombin activity: Top sample	Residual thrombin activity: Equilibrated sample	SMILES
53.7	31.7	O=C1C[C@H]2CCCN2C(=O)[C@H](Cc2ccccc2)NC(=O)[C@@H](NC(=O)c2ccc(Cl)s2)CSC/C=C/CSCCN1 [C1-X5-L4]
92.1	73.3	O=C1C[C@H]2CCCN2C(=O)[C@H](Cc2ccccc2)NC(=O)[C@@H](NC(=O)c2ccc(Cl)s2)CSCc2cccc(c2)CSCCN1 [C1-X5-L5]
82.2	60.8	O=C1C[C@H]2CCCN2C(=O)[C@H](Cc2ccccc2)NC(=O)[C@@H](NC(=O)c2ccc(Cl)s2)CSCc2ccccc2CSCCN1 [C1-X5-L6]
93.6	82.8	O=C1CSCCNC(=O)C[C@H]2CCCN2C(=O)[C@H](Cc2ccccc2)NC(=O)[C@@H](NC(=O)c2ccc(Cl)s2)CSC1 [C1-X5-L7]
89.8	93.2	O=C1C[C@H]2CCCN2C(=O)[C@@H](Cc2ccccc2)NC(=O)[C@@H](NC(=O)c2ccc(Cl)s2)CSCc2cccc(n2)CSCCN1 [C1-X31-L1]
103.5	90.9	O=C1C[C@H]2CCCN2C(=O)[C@@H](Cc2ccccc2)NC(=O)[C@@H](NC(=O)c2ccc(Cl)s2)CSCCS(=O)(=O)CCSCCN1 [C1-X31-L2]
95.4	95.0	O=C1C[C@H]2CCCN2C(=O)[C@@H](Cc2ccccc2)NC(=O)[C@@H](NC(=O)c2ccc(Cl)s2)CSCc2ccc(cc2)CSCCN1 [C1-X31-L3]
96.8	93.6	O=C1C[C@H]2CCCN2C(=O)[C@@H](Cc2ccccc2)NC(=O)[C@@H](NC(=O)c2ccc(Cl)s2)CSC/C=C/CSCCN1 [C1-X31-L4]
100.5	95.5	O=C1C[C@H]2CCCN2C(=O)[C@@H](Cc2ccccc2)NC(=O)[C@@H](NC(=O)c2ccc(Cl)s2)CSCc2cccc(c2)CSCCN1 [C1-X31-L5]
88.4	91.2	O=C1C[C@H]2CCCN2C(=O)[C@@H](Cc2ccccc2)NC(=O)[C@@H](NC(=O)c2ccc(Cl)s2)CSCc2ccccc2CSCCN1 [C1-X31-L6]
96.8	96.3	O=C1CSCCNC(=O)C[C@H]2CCCN2C(=O)[C@@H](Cc2ccccc2)NC(=O)[C@@H](NC(=O)c2ccc(Cl)s2)CSC1 [C1-X31-L7]
87.6	99.6	CN1C(=O)[C@@H](NC(=O)c2ccc(Cl)s2)CSCc2cccc(n2)CSCCNC(=O)C[C@H]2CCCN2C(=O)[C@@H]1Cc1ccccc1 [C1-X32-L1]
96.4	95.3	CN1C(=O)[C@@H](NC(=O)c2ccc(Cl)s2)CSCCS(=O)(=O)CCSCCNC(=O)C[C@H]2CCCN2C(=O)[C@@H]1Cc1ccccc1 [C1-X32-L2]
91.1	94.0	CN1C(=O)[C@@H](NC(=O)c2ccc(Cl)s2)CSCc2ccc(cc2)CSCCNC(=O)C[C@H]2CCCN2C(=O)[C@@H]1Cc1ccccc1 [C1-X32-L3]
95.6	100.2	CN1C(=O)[C@@H](NC(=O)c2ccc(Cl)s2)CSC/C=C/CSCCNC(=O)C[C@H]2CCCN2C(=O)[C@@H]1Cc1ccccc1 [C1-X32-L4]
98.6	96.6	CN1C(=O)[C@@H](NC(=O)c2ccc(Cl)s2)CSCc2cccc(c2)CSCCNC(=O)C[C@H]2CCCN2C(=O)[C@@H]1Cc1ccccc1 [C1-X32-L5]

Residual thrombin activity: Top sample	Residual thrombin activity: Equilibrated sample	SMILES
91.7	86.4	CN1C(=O)[C@@H](NC(=O)c2ccc(Cl)s2)CSCc2ccccc2CSCCNC(=O)C[C@H]2CCCN2C(=O)[C@@H]1Cc1ccccc1 [C1-X32-L6]
95.4	96.7	CN1C(=O)[C@@H](NC(=O)c2ccc(Cl)s2)CSCC(=O)CSCCNC(=O)C[C@H]2CCCN2C(=O)[C@@H]1Cc1ccccc1 [C1-X32-L7]
92.7	96.7	COc1ccc(C[C@@H]2NC(=O)[C@@H](NC(=O)c3ccc(Cl)s3)CSCc3cccc(n3)CSCCNC(=O)C[C@H]3CCCN3C2=O)cc1 [C1-X33-L1]
98.0	99.8	COc1ccc(C[C@@H]2NC(=O)[C@@H](NC(=O)c3ccc(Cl)s3)CSCCS(=O)(=O)CCSCCNC(=O)C[C@H]3CCCN3C2=O)cc1 [C1-X33-L2]
96.4	98.9	COc1ccc(C[C@@H]2NC(=O)[C@@H](NC(=O)c3ccc(Cl)s3)CSCc3ccc(cc3)CSCCNC(=O)C[C@H]3CCCN3C2=O)cc1 [C1-X33-L3]
95.0	98.0	COc1ccc(C[C@@H]2NC(=O)[C@@H](NC(=O)c3ccc(Cl)s3)CSC/C=C/CSCCNC(=O)C[C@H]3CCCN3C2=O)cc1 [C1-X33-L4]
99.7	99.3	COc1ccc(C[C@@H]2NC(=O)[C@@H](NC(=O)c3ccc(Cl)s3)CSCc3cccc(c3)CSCCNC(=O)C[C@H]3CCCN3C2=O)cc1 [C1-X33-L5]
89.9	95.4	COc1ccc(C[C@@H]2NC(=O)[C@@H](NC(=O)c3ccc(Cl)s3)CSCc3ccccc3CSCCNC(=O)C[C@H]3CCCN3C2=O)cc1 [C1-X33-L6]
97.9	101.4	COc1ccc(C[C@@H]2NC(=O)[C@@H](NC(=O)c3ccc(Cl)s3)CSCC(=O)CSCCNC(=O)C[C@H]3CCCN3C2=O)cc1 [C1-X33-L7]
93.9	92.0	O=C1C[C@H]2CCCN2C(=O)[C@H](Cc2ccc(Cl)cc2)NC(=O)[C@@H](NC(=O)c2ccc(Cl)s2)CSCc2cccc(n2)CSCCN1 [C1-X34-L1]
95.9	98.3	O=C1C[C@H]2CCCN2C(=O)[C@H](Cc2ccc(Cl)cc2)NC(=O)[C@@H](NC(=O)c2ccc(Cl)s2)CSCCS(=O)(=O)CCSCCN1 [C1-X34-L2]
96.0	94.6	O=C1C[C@H]2CCCN2C(=O)[C@H](Cc2ccc(Cl)cc2)NC(=O)[C@@H](NC(=O)c2ccc(Cl)s2)CSCc2ccc(cc2)CSCCN1 [C1-X34-L3]
98.7	91.7	O=C1C[C@H]2CCCN2C(=O)[C@H](Cc2ccc(Cl)cc2)NC(=O)[C@@H](NC(=O)c2ccc(Cl)s2)CSC/C=C/CSCCN1 [C1-X34-L4]
97.0	98.5	O=C1C[C@H]2CCCN2C(=O)[C@H](Cc2ccc(Cl)cc2)NC(=O)[C@@H](NC(=O)c2ccc(Cl)s2)CSCc2cccc(c2)CSCCN1 [C1-X34-L5]
93.0	92.0	O=C1C[C@H]2CCCN2C(=O)[C@H](Cc2ccc(Cl)cc2)NC(=O)[C@@H](NC(=O)c2ccc(Cl)s2)CSCc2ccccc2CSCCN1 [C1-X34-L6]
100.2	98.8	O=C1CSCCNC(=O)C[C@H]2CCCN2C(=O)[C@H](Cc2ccc(Cl)cc2)NC(=O)[C@@H](NC(=O)c2ccc(Cl)s2)CSC1 [C1-X34-L7]

From PMC11062899, “De novo development of small cyclic peptides that are orally bioavailable” (Nature Chemical Biology, 2023)
